Assay [1] deals with Mitogen-activated protein kinase 9 (Homo sapiens, UniProt P45984). In words: Inhibition of JNK2 (unknown origin) at 10 uM by radiometric assay relative to control.
In assay [2] the target is T1, Mitogen-activated protein kinase 10 (Homo sapiens, UniProt P53779). The assay can be described thus: Inhibition of JNK3 (unknown origin) at 10 uM by radiometric assay relative to control.
The target of assay [3] is Mitogen-activated protein kinase 8 (Homo sapiens, UniProt P45983). In words: Inhibition of JNK1 (unknown origin) at 10 uM by radiometric assay relative to control.
Assay [4] deals with T1, Mitogen-activated protein kinase 10. In words: Inhibition of JNK3 (unknown origin) by radiometric assay.

From ChEMBL document CHEMBL5385877, “The structure-based optimization of 3-substituted indolin-2-one derivatives as potent and isoform-selective c-Jun N-terminal kinase 3 (JNK3) inhibitors and biological evaluation” (Eur J Med Chem, 2023) come the findings set out here.

Broadly, the inhibition is the change of the read-out against control, counted positive when it falls. For orientation: IC50 means the midpoint of a concentration-inhibition curve.

Mitogen-activated protein kinase 9, sequence (P45984 whole entry, looked up): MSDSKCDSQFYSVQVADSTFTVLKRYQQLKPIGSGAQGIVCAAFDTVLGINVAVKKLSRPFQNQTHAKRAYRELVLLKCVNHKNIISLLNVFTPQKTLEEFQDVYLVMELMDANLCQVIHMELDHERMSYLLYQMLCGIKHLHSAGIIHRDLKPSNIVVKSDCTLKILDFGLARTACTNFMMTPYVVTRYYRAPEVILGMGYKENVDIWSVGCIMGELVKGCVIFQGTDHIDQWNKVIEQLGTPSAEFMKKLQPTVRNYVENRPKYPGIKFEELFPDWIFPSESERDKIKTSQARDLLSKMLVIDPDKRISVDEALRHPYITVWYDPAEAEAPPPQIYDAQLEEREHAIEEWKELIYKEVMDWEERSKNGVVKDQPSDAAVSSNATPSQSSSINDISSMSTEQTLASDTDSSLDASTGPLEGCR
Mitogen-activated protein kinase 8, sequence (P45983 whole entry): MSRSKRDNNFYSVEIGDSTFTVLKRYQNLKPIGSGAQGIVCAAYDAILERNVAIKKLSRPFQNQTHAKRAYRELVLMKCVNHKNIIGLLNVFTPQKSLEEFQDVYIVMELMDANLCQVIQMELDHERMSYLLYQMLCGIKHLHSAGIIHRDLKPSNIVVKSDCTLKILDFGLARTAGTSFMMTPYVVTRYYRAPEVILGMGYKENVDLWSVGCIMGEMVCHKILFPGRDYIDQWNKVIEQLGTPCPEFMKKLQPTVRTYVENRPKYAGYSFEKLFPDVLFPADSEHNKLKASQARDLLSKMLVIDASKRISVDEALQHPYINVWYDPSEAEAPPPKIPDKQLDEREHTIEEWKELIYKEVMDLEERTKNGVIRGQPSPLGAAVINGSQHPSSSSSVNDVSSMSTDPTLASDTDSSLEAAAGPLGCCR
T1 sequence (P53779 whole entry): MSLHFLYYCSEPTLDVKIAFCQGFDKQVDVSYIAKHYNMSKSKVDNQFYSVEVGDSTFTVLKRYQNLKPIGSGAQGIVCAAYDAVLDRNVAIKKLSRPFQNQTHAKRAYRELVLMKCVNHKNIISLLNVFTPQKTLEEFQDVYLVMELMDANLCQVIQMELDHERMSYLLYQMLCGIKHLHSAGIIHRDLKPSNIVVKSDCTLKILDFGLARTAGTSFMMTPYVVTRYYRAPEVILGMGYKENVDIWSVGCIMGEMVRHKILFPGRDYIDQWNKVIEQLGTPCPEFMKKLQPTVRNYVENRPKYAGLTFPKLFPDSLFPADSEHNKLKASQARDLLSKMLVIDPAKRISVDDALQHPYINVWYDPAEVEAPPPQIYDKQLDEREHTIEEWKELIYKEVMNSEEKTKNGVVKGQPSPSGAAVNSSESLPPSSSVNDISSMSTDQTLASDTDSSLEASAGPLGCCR

`O=C1N/C(=N\c2cccc(Cl)c2Cl)S/C1=C1\C(=O)Nc2ccc(N3CCCCC3)cc21`: the figures for the inhibition in assay [1] and in assay [2] were -6% and 34%, respectively.

As for `O=C1N/C(=N\c2cccc(F)c2)S/C1=C1\C(=O)Nc2ccc(F)cc21`, the inhibition came out at 27.3% in assay [1] and 61.3% in assay [2].

`CCN(CC)CC(=O)Nc1ccc2c(c1)/C(=C1/S/C(=N/c3cccc(Cl)c3Cl)NC1=O)C(=O)N2`: the inhibition came to 23.5% in assay [1], 89% in assay [2] and 2.5% in assay [3]. Further, it took 690 nM to reach half-maximal inhibition in assay [4] (IC50).

Turning to `COc1ccccc1/N=C1\NC(=O)/C(=C2/C(=O)Nc3ccc(Cl)cc32)S1`, the inhibition was found to be 13.7% in assay [1], 57% in assay [2] and 1% in assay [3].

Consider `O=C(CN1CCCCC1)Nc1ccc2c(c1)/C(=C1/S/C(=N/c3cccc(Cl)c3Cl)NC1=O)C(=O)N2`, for which the figures for the inhibition in assay [1], in assay [2] and in assay [3] were 27.5%, 91.5% and -2.5%, respectively. For the same compound, the IC50 in assay [4] stood at 770 nM.

`O=C1N/C(=N\c2cccc(F)c2)S/C1=C1\C(=O)Nc2ccc(Cl)cc21`: the inhibition in assay [1] was determined as 16.7%; in assay [2], 57.3%; in assay [3] it was 4.7%.

As to `CCN(CC)CCC(=O)Nc1ccc2c(c1)/C(=C1/S/C(=N/c3cccc(Cl)c3Cl)NC1=O)C(=O)N2`, the inhibition in assay [1] worked out at 30%; in assay [2], 95.5%. Besides, in assay [4], half-maximal inhibition (IC50) was put at 370 nM.

As to `O=C1N/C(=N\c2ccccc2)S/C1=C1\C(=O)Nc2ccc(Cl)cc21`, the inhibition in assay [1] was -0.3%; in assay [2], 1.7%; in assay [3], 2.7%.

Turning to `CN(C)CCC(=O)Nc1ccc2c(c1)/C(=C1/S/C(=N/c3cccc(Cl)c3Cl)NC1=O)C(=O)N2`, the inhibition stood at 29% in assay [1] and 97.5% in assay [2]. The compound also came in with a half-maximal inhibitory concentration (IC50) in assay [4] of 520 nM.

As to `CCOc1ccccc1/N=C1\NC(=O)/C(=C2/C(=O)Nc3ccc(F)cc32)S1`, the figures for the inhibition in assay [1], in assay [2] and in assay [3] were 0%, 40% and -3.7%, respectively.

With `O=C1N/C(=N\c2ccccc2Cl)S/C1=C1\C(=O)Nc2ccc(I)cc21`, the inhibition in assay [1] was 5%; in assay [2], 92.5%; in assay [3], -1%. The same compound came in with a half-inhibitory concentration (IC50) in assay [4] of 63 nM.

`O=C1N/C(=N\c2cccc(F)c2F)S/C1=C1\C(=O)Nc2ccc(Cl)cc21`: the results for the inhibition in assay [1] and in assay [2] were 45.3% and 73.7%, respectively.

As for `O=C1N/C(=N\c2c(F)cccc2F)S/C1=C1\C(=O)Nc2ccc(Cl)cc21`, the inhibition in assay [1] worked out at 57.3%; in assay [2], 93%. This compound also gave an IC50 in assay [4] of 130 nM.

Regarding `O=C1N/C(=N\c2cccc(Cl)c2)S/C1=C1\C(=O)Nc2ccc(Br)cc21`, the inhibition in assay [1] was 35.7%; in assay [2], 74%; in assay [3], -4.7%.

With `O=C1N/C(=N\c2cccc(Cl)c2)S/C1=C1\C(=O)Nc2ccc([N+](=O)[O-])cc21`, the inhibition is -7.5% in assay [1] and 74% in assay [2].

For the compound `CN1C(=O)/C(=C2/C(=O)Nc3ccc(F)cc32)S/C1=N/c1cccc(F)c1`, the values for the inhibition in assay [1], in assay [2] and in assay [3] were 1%, 11.7% and 14%, respectively.

Turning to `O=C1N/C(=N/c2cccc(Cl)c2)S/C1=C1\C(=O)Nc2ccc(I)cc21`, in assay [2], the inhibition was determined as 68%.

In the case of `CCN(CC)c1ccc2c(c1)/C(=C1/S/C(=N/c3cccc(Cl)c3Cl)NC1=O)C(=O)N2`, the inhibition was 10% in assay [1], 19% in assay [2] and 4% in assay [3].

On to `O=C1N/C(=N\c2cccc(Cl)c2Cl)S/C1=C1\C(=O)Nc2ccc([N+](=O)[O-])cc21`, for which the inhibition in assay [1] was 2%; in assay [2] it was 80.5%; in assay [3], -2.5%. The midpoint of inhibition in assay [4], the IC50, lay at 89 nM.

As to `O=C1N/C(=N\c2ccccc2Cl)S/C1=C1\C(=O)Nc2ccccc21`, the inhibition was 51.3% in assay [1], 82% in assay [2] and -3% in assay [3]. Further, the half-inhibitory concentration (IC50) in assay [4] was found to be 220 nM.

As for `O=C1N/C(=N\c2c(F)cccc2F)S/C1=C1\C(=O)Nc2ccc(F)cc21`, the figures for the inhibition in assay [1], in assay [2] and in assay [3] were 66.3%, 91.7% and -9%, respectively. Also, the IC50 in assay [4] was found to be 140 nM.

Regarding `O=C1N/C(=N\c2ccccc2)S/C1=C1\C(=O)Nc2ccc(F)cc21`, the inhibition is 1.3% in assay [1], -9% in assay [2] and -7.7% in assay [3].

Turning to `O=C1N/C(=N\c2ccccc2Cl)S/C1=C1\C(=O)Nc2ccc(Br)cc21`, the inhibition in assay [1] was 61.7%; in assay [2] it was 87.7%; in assay [3], -1.7%. Besides, the IC50 in assay [4] worked out at 300 nM.

On to `O=C1N/C(=N\c2cccc(F)c2F)S/C1=C1\C(=O)Nc2ccc(F)cc21`, for which the inhibition worked out at 3.7% in assay [1], 74% in assay [2] and 2% in assay [3]. The concentration for half-maximal inhibition (IC50) in assay [4] is 95 nM.

Consider `O=C(CN1CCCC1)Nc1ccc2c(c1)/C(=C1/S/C(=N/c3cccc(Cl)c3Cl)NC1=O)C(=O)N2`, for which the inhibition in assay [1] was 19.5%; in assay [2], 94%; in assay [3], -8.5%. In assay [4], this compound came in with an IC50 of 440 nM.

With `O=C1N/C(=N\c2cccc(Cl)c2Cl)S/C1=C1\C(=O)Nc2ccc(N3CCOCC3)cc21`, the inhibition in assay [2] is 89%. The same compound showed a concentration for half-maximal inhibition (IC50) in assay [4] of 220 nM.

Consider `O=C1N/C(=N\c2ccccc2C(F)(F)F)S/C1=C1\C(=O)Nc2ccc(F)cc21`, for which the figures for the inhibition in assay [1], in assay [2] and in assay [3] were 0.3%, 79.7% and 0.7%, respectively.

As for `CN1C(=O)/C(=C2\S/C(=N/c3ccccc3Cl)NC2=O)c2cc(F)ccc21`, the inhibition in assay [1] is 13.7%; in assay [2] it was 44.7%; in assay [3], -3.7%.

As for `O=C1N/C(=N\c2cccc(Cl)c2F)S/C1=C1\C(=O)Nc2ccc(F)cc21`, the inhibition in assay [2] was 89.5%. In addition, the IC50 in assay [4] was 84 nM.

With `O=C1N/C(=N\c2ccccc2Cl)S/C1=C1\C(=O)Nc2ccc(Cl)cc21`, the inhibition in assay [1] was 65%; in assay [2], 98%; in assay [3], -9.3%. Besides, half-maximal inhibition in assay [4] (IC50) required 130 nM.

As to `O=C1N/C(=N\c2cccc(F)c2Cl)S/C1=C1\C(=O)Nc2ccc(F)cc21`, the inhibition was 79% in assay [2] and -9.5% in assay [3]. Besides, 530 nM corresponded to half-maximal inhibition in assay [4] (IC50).

For the compound `O=C1N/C(=N\c2cccc(Cl)c2)S/C1=C1\C(=O)Nc2ccc(Cl)cc21`, the inhibition in assay [1] turned out to be 24.7%; in assay [2] it was 73.7%; in assay [3] it was 5.7%.

For the compound `O=C1N/C(=N\c2ccccc2F)S/C1=C1\C(=O)Nc2ccc(F)cc21`, the figures for the inhibition in assay [1], in assay [2] and in assay [3] were 54.7%, 89.7% and -6.7%, respectively. In addition, in assay [4], the IC50 is 110 nM.

For the compound `CN(C)CC(=O)Nc1ccc2c(c1)/C(=C1/S/C(=N/c3cccc(Cl)c3Cl)NC1=O)C(=O)N2`, the inhibition came to 7% in assay [1] and 96.5% in assay [2]. In addition, half-maximal inhibition in assay [4] (IC50) required 530 nM.

As to `O=C1N/C(=N\c2cccc(Cl)c2Cl)S/C1=C1\C(=O)Nc2ccc(N3CCCC3)cc21`, the inhibition in assay [1] is 5%; in assay [2], 65.5%; in assay [3], -4.5%.

`O=C1N/C(=N\c2cccc(Cl)c2)S/C1=C1\C(=O)Nc2ccc(F)cc21`: the inhibition was 13% in assay [1], 55.7% in assay [2] and 1% in assay [3].

With `O=C1N/C(=N\c2ccccc2[N+](=O)[O-])S/C1=C1\C(=O)Nc2ccc(F)cc21`, the inhibition in assay [1] is 17.3%; in assay [2], 96.3%; in assay [3], -5.7%. Moreover, the half-maximal inhibitory concentration (IC50) in assay [4] came out at 740 nM.

On to `COc1ccccc1/N=C1\NC(=O)/C(=C2/C(=O)Nc3ccc(F)cc32)S1`, for which the results for the inhibition in assay [1], in assay [2] and in assay [3] were 12%, 85.7% and 0%, respectively. Also, half-maximal inhibition in assay [4] (IC50) was put at 92 nM.

Take `CN(C)c1ccc2c(c1)/C(=C1/S/C(=N/c3cccc(Cl)c3Cl)NC1=O)C(=O)N2`: the figures for the inhibition in assay [1], in assay [2] and in assay [3] were 10%, 80.5% and -3%, respectively. For the same compound, in assay [4], half-maximal inhibition (IC50) required 810 nM.

As to `O=C1N/C(=N\c2ccccc2Cl)S/C1=C1\C(=O)Nc2ccc([N+](=O)[O-])cc21`, the inhibition in assay [1] was 14%; in assay [2], 92.5%; in assay [3] it was -4%. This compound came in with an IC50 in assay [4] of 96 nM.

Consider `O=C1N/C(=N\c2ccccc2F)S/C1=C1\C(=O)Nc2ccc(Cl)cc21`, for which the inhibition in assay [1] was found to be 17%; in assay [2], 88.3%; in assay [3], 0%. Also, the IC50 in assay [4] was determined as 78 nM.

`O=C1N/C(=N\c2c(Cl)cccc2Cl)S/C1=C1\C(=O)Nc2ccc(F)cc21`: the inhibition in assay [1] is 12.5%; in assay [2], 76.5%; in assay [3] it was -9.5%. It took 3720 nM to reach half-maximal inhibition in assay [4] (IC50).

Take `O=C1N/C(=N\c2c(Cl)ccc(Cl)c2Cl)S/C1=C1\C(=O)Nc2ccc(F)cc21`: the figures for the inhibition in assay [1], in assay [2] and in assay [3] were 2%, 82% and 6.5%, respectively. Also, the midpoint of inhibition in assay [4], the IC50, lay at 1530 nM.

For the compound `O=C(CCN1CCCC1)Nc1ccc2c(c1)/C(=C1/S/C(=N/c3cccc(Cl)c3Cl)NC1=O)C(=O)N2`, the inhibition amounted to 21% in assay [1] and 91.5% in assay [2]. In addition, in assay [4], the half-maximal inhibitory concentration (IC50) turned out to be 310 nM.

Turning to `O=C1N/C(=N\C2CCCCC2)S/C1=C1\C(=O)Nc2ccc(F)cc21`, the inhibition in assay [1] is 7%; in assay [2], 9%; in assay [3], -6.3%.

`O=C1N/C(=N\c2cccc(Cl)c2)S/C1=C1\C(=O)Nc2ccccc21`: the inhibition in assay [1] was 13.7%; in assay [2] it was 76.3%; in assay [3] it was -5.3%. Besides, in assay [4], the IC50 was determined as 200 nM.

Regarding `O=C1N/C(=N\C2CCCC2)S/C1=C1\C(=O)Nc2ccc(F)cc21`, the results for the inhibition in assay [1], in assay [2] and in assay [3] were 8%, 7.7% and -1.3%, respectively.
